Laboratory results reported in patent US7307145B2, “Sodium-independent transporter transporting small-sized neutral amino acid, gene thereof and method of analyzing transporter function by constructing fused proteins enabling the specification of the function” (Japan Science and Technology Agency, priority 2001, dated 2007).

T1: Asc-2-rBAT (Mus musculus, UniProt Q8VIE6+Q91WV7)
T1 construct: expressed in transfected cells; host or cells: oocyte injected with cRNA
T1 sequence (Q8VIE6+Q91WV7 with tags, fused parts or gaps): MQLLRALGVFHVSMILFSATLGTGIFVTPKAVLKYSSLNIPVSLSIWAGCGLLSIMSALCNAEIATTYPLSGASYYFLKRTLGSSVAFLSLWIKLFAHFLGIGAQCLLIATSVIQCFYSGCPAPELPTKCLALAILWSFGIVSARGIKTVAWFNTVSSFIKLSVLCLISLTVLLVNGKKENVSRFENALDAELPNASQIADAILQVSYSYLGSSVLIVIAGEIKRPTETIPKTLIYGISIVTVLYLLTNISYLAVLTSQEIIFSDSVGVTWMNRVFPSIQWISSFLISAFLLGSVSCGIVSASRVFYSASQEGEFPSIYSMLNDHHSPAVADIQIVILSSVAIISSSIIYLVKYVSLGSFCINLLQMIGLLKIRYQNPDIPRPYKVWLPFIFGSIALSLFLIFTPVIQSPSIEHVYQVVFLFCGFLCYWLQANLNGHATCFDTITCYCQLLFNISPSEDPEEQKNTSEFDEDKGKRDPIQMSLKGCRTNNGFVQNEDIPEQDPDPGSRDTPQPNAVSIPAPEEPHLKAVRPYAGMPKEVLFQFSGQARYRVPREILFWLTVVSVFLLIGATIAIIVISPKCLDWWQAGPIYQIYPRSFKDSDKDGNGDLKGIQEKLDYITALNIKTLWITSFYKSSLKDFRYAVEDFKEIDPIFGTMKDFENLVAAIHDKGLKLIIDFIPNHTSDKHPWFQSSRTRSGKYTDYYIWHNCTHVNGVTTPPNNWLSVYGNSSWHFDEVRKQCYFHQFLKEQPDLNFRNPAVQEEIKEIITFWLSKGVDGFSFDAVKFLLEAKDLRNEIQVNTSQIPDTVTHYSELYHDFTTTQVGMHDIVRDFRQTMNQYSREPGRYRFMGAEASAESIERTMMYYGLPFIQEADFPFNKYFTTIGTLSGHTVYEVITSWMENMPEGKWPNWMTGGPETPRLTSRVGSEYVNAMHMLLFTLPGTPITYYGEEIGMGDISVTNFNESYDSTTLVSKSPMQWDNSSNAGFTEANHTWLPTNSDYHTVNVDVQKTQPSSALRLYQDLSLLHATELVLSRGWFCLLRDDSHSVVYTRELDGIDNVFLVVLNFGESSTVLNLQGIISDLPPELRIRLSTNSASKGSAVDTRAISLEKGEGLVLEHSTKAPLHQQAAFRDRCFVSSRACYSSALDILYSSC


How the values were obtained:
Asc-2-rBAT [1] = target: T1, Asc-2-rBAT; assay: Inhibition test: 14C-serine uptake by oocytes expressing Asc-2-rBAT with added amino acids and analogues; type: cell-based; settings: 14C-serine 5 μM; non-labeled compound 500 μM; Na+-free uptake solution
Description: In a serine uptake test in an oocyte into which a cRNA of the gene of the fusion protein of the Asc-2 with the rBAT (Asc-2-rBAT) was injected, the effect of amino acids and their analogues on the system was investigated.
The serine uptake test was conducted using the oocyte into which a cRNA of the gene of the fusion protein of the Asc-2 with the rBAT (Asc-2-rBAT) was injected in accordance with the method in Section (2) in Example 2 described above. Nevertheless, the test was conducted using as a sodium-free uptake solution (Na^+-free uptake solution), and the ^14C-serine (5 μM) uptake was measured in the presence or absence of various compounds (non-labeled) at 500 μM.

Asc-2-rBAT [2] = target: T1, Asc-2-rBAT; assay: Michaelis-Menten test of amino acid uptake by Xenopus oocytes injected with Asc-2-rBAT fusion protein cRNA; type: cell-based; settings: Asc-2-rBAT expressed in oocyte; serine = 1.00; mean ± standard error, n=3
Description: (§1) A Michaelis-Menten pharmacodynamic test of a sodium-independent transporter Asc-2 transporting small-sized neutral amino acid was conducted. By investigating the change in the ratio of serine uptake by the difference in the substrate serine concentration, the Michaelis-Menten pharmacodynamic test of the Asc-2 was conducted.
(§2) The serine uptake test was conducted using the oocyte into which a cRNA of the gene of the fusion protein of the Asc-2 with the 4F2hc or the rBAT (Asc-2-4F2hc or Asc-2-rBAT) was injected in accordance with the method in Section (2) in Example 2 described above.
(§3) The Michaelis-Menten pharmacodynamic tests were conducted also for the amino acids, other than serine, which also serve as the substrates for the Asc-2, and the Km and Vmax values were calculated and are shown in the following Table 1.

[3] = system: Asc-2 fusion protein with the 4F2hc or rBAT; assay: Transport of amino acids by Asc-2 expressed on the cell membrane as fusion protein with 4F2hc or rBAT (summary statement); type: cell-based, mouse; settings: Asc-2 fused with 4F2hc or rBAT
Excerpt: In addition, L-methionine, L-leucine, L-isoleucine, L-valine, L-phenylalanine, L-tyrosine, L-histidine, D-serine and D-alanine are also transported at a low affinity.

Asc-2-rBAT [4] = target: T1, Asc-2-rBAT; assay: Uptake test of radiolabeled amino acids and analogues as substrates by oocytes expressing Asc-2-rBAT; type: cell-based; settings: Asc-2-rBAT oocyte; 14C compound as substrate
Description: Using various amino acids and their analogues as substrates, the uptake by an oocyte into which a cRNA of the gene of the fusion protein of the Asc-2 with the rBAT (Asc-2-rBAT) had been injected was investigated.
The uptake test of various amino acids and their analogues was conducted using the oocyte into which a cRNA of the gene of the fusion protein of the Asc-2 with the rBAT (Asc-2-rBAT) had been injected in accordance with the method in Section (2) in Example 2 described above. Nevertheless, the test was conducted using as a substrate various compounds which were radiolabeled instead of ^14C-serine.

N[C@@H](CO)C(=O)O = system: T2, N[C@@H](CO)C(=O)O; assay: Michaelis-Menten test of serine uptake by Xenopus oocytes injected with Asc-2-4F2hc fusion protein cRNA; type: cell-based, mouse; settings: other: Asc-2-4F2hc expressed in oocyte
T2 construct: expressed in transfected cells; host or cells: oocyte injected with cRNA
Description: as §1, §2

[5] = substrate: CC(C)[C@H](N)C(=O)O; assay: Michaelis-Menten test of amino acid uptake by Xenopus oocytes injected with Asc-2-rBAT fusion protein cRNA; type: cell-based, mouse; settings: other: Asc-2-rBAT expressed in oocyte; mean ± standard error, n=3
Description: as §1, §2, §3

[6] = substrate: CC(C)C[C@H](N)C(=O)O; assay: as above; type: cell-based, mouse; settings: other: Asc-2-rBAT expressed in oocyte; mean ± standard error, n=3
Description: as §1, §2, §3

[7] = substrate: N[C@@H](CS)C(=O)O; assay: as above; type: cell-based, mouse; settings: other: Asc-2-rBAT expressed in oocyte; mean ± standard error, n=3
Description: as §1, §2, §3

[8] = substrate: N[C@@H](CO)C(=O)O; assay: as above; type: cell-based, mouse; settings: other: Asc-2-rBAT expressed in oocyte; mean ± standard error, n=3
Description: as §1, §2, §3

[9] = substrate: C[C@@H](O)[C@H](N)C(=O)O; assay: cells, lysate or membranes; settings: other: Asc-2-rBAT expressed in oocyte; mean ± standard error, n=3
[10] = substrate: NCC(=O)O; assay: cells, lysate or membranes; settings: other: Asc-2-rBAT expressed in oocyte; mean ± standard error, n=3
[11] = substrate: C[C@H](N)C(=O)O; assay: cells, lysate or membranes; settings: other: Asc-2-rBAT expressed in oocyte; mean ± standard error, n=3

| Molecule | Effect on Asc-2-rBAT-mediated 14C-serine uptake (cis-inhibition) (Asc-2-rBAT [1]) | Vmax (ratio to the Vmax of serine) (Asc-2-rBAT [2]) | Affinity of transport by Asc-2 fusion protein [3] | further results |
| --- | --- | --- | --- | --- |
| NC1(C(=O)O)CC2CCC1C2 (centres unmarked) [BCH, 2-amino-2-norbornane-carboxylic acid] | no effect |  |  |  |
| CC(C)C[C@H](N)C(=O)O [L-Leucine] |  | 1.17 ± 0.11 | low affinity |  |
| N[C@@H](CO)C(=O)O [L-Serine] | inhibited potently | (1.00) | high affinity | Uptake of radiolabeled compound into the oocyte (Asc-2-rBAT [4]): substantial uptake |
| CSCC[C@H](N)C(=O)O [L-methionine] |  |  | low affinity |  |
| C[C@H](N)C(=O)O [L-Alanine] | inhibited potently | 0.83 ± 0.08 | high affinity | Uptake of radiolabeled compound into the oocyte (Asc-2-rBAT [4]): substantial uptake |
| NCC(=O)O [Glycine] | inhibited potently | 1.18 ± 0.05 | high affinity | Uptake of radiolabeled compound into the oocyte (Asc-2-rBAT [4]): substantial uptake |
| Asc-2-4F2hc (Mus musculus) |  |  |  | Km (N[C@@H](CO)C(=O)O): 2.10 µM |
| α-aminoisometylic acid | no effect |  |  |  |
| CC(C)[C@H](N)C(=O)O [L-Valine] |  | 0.79 ± 0.22 | low affinity |  |
| C[C@@H](O)[C@H](N)C(=O)O [L-Threonine] | inhibited potently | 0.53 ± 0.06 | high affinity | Uptake of radiolabeled compound into the oocyte (Asc-2-rBAT [4]): substantial uptake |
| C[C@@H](N)C(=O)O [D-alanine] |  |  | low affinity |  |
| NCCCC(=O)O [γ-aminoisoyric acid] | no effect |  |  |  |
| N[C@@H](CS)C(=O)O [L-Cysteine] | inhibited potently | 0.19 ± 0.03 | high affinity |  |
| N[C@@H](Cc1ccc(O)cc1)C(=O)O [L-tyrosine] |  |  | low affinity |  |
| N[C@@H](Cc1ccccc1)C(=O)O [L-phenylalanine] |  |  | low affinity |  |
| N[C@@H](Cc1c[nH]cn1)C(=O)O [L-histidine] |  |  | low affinity |  |
| N[C@H](CO)C(=O)O [D-serine] |  |  | low affinity |  |
| CC[C@H](C)[C@H](N)C(=O)O [L-isoleucine] |  |  | low affinity |  |
| Asc-2-rBAT (Mus musculus) (protein, expressed in transfected cells; host or cells: oocyte injected with cRNA) MQLLRALGVFHVSMILFSATLGTGIFVTPKAVLKYSSLNIPVSLSIWAGCGLLSIMSALCNAEIATTYPLSGASYYFLKRTLGSSVAFLSLWIKLFAHFLGIGAQCLLIATSVIQCFYSGCPAPELPTKCLALAILWSFGIVSARGIKTVAWFNTVSSFIKLSVLCLISLTVLLVNGKKENVSRFENALDAELPNASQIADAILQVSYSYLGSSVLIVIAGEIKRPTETIPKTLIYGISIVTVLYLLTNISYLAVLTSQEIIFSDSVGVTWMNRVFPSIQWISSFLISAFLLGSVSCGIVSASRVFYSASQEGEFPSIYSMLNDHHSPAVADIQIVILSSVAIISSSIIYLVKYVSLGSFCINLLQMIGLLKIRYQNPDIPRPYKVWLPFIFGSIALSLFLIFTPVIQSPSIEHVYQVVFLFCGFLCYWLQANLNGHATCFDTITCYCQLLFNISPSEDPEEQKNTSEFDEDKGKRDPIQMSLKGCRTNNGFVQNEDIPEQDPDPGSRDTPQPNAVSIPAPEEPHLKAVRPYAGMPKEVLFQFSGQARYRVPREILFWLTVVSVFLLIGATIAIIVISPKCLDWWQAGPIYQIYPRSFKDSDKDGNGDLKGIQEKLDYITALNIKTLWITSFYKSSLKDFRYAVEDFKEIDPIFGTMKDFENLVAAIHDKGLKLIIDFIPNHTSDKHPWFQSSRTRSGKYTDYYIWHNCTHVNGVTTPPNNWLSVYGNSSWHFDEVRKQCYFHQFLKEQPDLNFRNPAVQEEIKEIITFWLSKGVDGFSFDAVKFLLEAKDLRNEIQVNTSQIPDTVTHYSELYHDFTTTQVGMHDIVRDFRQTMNQYSREPGRYRFMGAEASAESIERTMMYYGLPFIQEADFPFNKYFTTIGTLSGHTVYEVITSWMENMPEGKWPNWMTGGPETPRLTSRVGSEYVNAMHMLLFTLPGTPITYYGEEIGMGDISVTNFNESYDSTTLVSKSPMQWDNSSNAGFTEANHTWLPTNSDYHTVNVDVQKTQPSSALRLYQDLSLLHATELVLSRGWFCLLRDDSHSVVYTRELDGIDNVFLVVLNFGESSTVLNLQGIISDLPPELRIRLSTNSASKGSAVDTRAISLEKGEGLVLEHSTKAPLHQQAAFRDRCFVSSRACYSSALDILYSSC |  |  |  | Km [5]: 34.8 ± 10.6 µM; Km [6]: 39.6 ± 4.3 µM; Km [7]: 3.13 ± 0.57 µM; Km [8]: 2.88 ± 0.37 µM; Km [9]: 2.72 ± 0.44 µM; Km [10]: 2.15 ± 0.35 µM; Km [11]: 2.35 ± 0.30 µM |
